In paper PMC6397092 (Platelets, 2018):

Biological target: T1, PAR4 (protease-activated receptor 4) (Homo sapiens, UniProt Q96RI0)
T1 sequence (Q96RI0 48-385): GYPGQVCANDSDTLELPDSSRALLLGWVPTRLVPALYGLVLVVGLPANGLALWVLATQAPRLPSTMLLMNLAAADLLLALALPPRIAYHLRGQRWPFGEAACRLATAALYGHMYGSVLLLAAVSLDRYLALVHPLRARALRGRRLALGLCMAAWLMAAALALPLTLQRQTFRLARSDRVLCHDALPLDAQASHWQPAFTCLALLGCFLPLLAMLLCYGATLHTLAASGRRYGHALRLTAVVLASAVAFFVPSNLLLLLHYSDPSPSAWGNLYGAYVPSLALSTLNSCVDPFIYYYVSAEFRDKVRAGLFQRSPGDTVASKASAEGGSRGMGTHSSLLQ
Experiment: inhibition of human platelet activation by […] gamma-thrombin
Type: cell-based

IC50: 8.42 nM
Substance: VU0661245
